In patent publication US20060194971A1, “Anethole dithiolethione and other dithiolethiones for the treatment of conditions associated with dysfunction of monoamine neruotransmission” (priority 2005, published 2006):
Like-named read-outs stand apart in the source and are kept apart here. Each block holds one molecule with its values, some of them ahead of it.

How the values were obtained:
[1] = target: T1, monoamine oxidase-B (MAO-B) (Rattus norvegicus, UniProt P19643); assay: MAO-B activity in astroglial cell extracts in the presence of clorgyline, Amplex Red MAO assay; type: biochemical
T1 construct: in cellular extracts obtained from cultures of neonatal rat striatal astroglial cells; endogenous in cells; host or cells: cultured neonatal rat striatal astroglial cells (supernatant of sonicated lysate)
T1 sequence (P19643 1-520): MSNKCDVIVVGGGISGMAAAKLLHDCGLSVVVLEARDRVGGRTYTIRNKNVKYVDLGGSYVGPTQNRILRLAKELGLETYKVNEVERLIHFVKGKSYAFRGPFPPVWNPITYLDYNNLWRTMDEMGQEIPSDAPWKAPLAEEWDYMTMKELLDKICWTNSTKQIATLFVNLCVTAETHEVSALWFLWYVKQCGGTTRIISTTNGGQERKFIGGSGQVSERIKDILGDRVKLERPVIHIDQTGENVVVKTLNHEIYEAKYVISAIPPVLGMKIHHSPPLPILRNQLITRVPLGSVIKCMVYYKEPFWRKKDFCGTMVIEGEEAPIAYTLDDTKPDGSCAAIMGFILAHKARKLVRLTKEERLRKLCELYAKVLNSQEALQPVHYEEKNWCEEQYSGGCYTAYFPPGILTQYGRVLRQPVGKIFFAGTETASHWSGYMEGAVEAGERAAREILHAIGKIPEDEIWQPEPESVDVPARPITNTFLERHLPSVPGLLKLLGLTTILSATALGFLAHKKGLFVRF
Procedure: (§1) Neonatal rat striatal astroglial cells were used as a source for both MAO-A and MAO-B activity (Carlo et al., Brain Res 711, 175-183, 1996). Astroglial cells were cultured as described (Langeveld et al., Neurosci. Lett. 192, 13-16, 1995). Following one week in culture in 5% CO2/95% air and at 37° C., cells were trypsinized and sonicated in ice cold 25 mM Tris-HCl buffer (pH 7.4) containing 1 mM EDTA. Thereafter, the obtained lysates were centrifuged for 5 min at 1 0,000 g and 4° C., and aliquots of the supernatant fractions were taken for determination of MAO activity using the Amplex Red MAO assay kit (Molecular Probes, Leiden, The Netherlands), which is based on the method described by Zhou and Panchuk-Voloshina (Anal. Biochem. 253, 169-174, 1997). Measurements were performed according to the manufacturers instructions. Briefly, prior to addition of the substrate, the samples were incubated for 30 min in a 96 well plate with drugs or solvent (total volume of 50 μl). Thereafter, 50 μl Amplex Red reagent was added containing 2 U/ml horseradisch peroxidase (HRP), p-tyramine HCl (2 mM, substrate for both MAO A and MAO B (Youdim and Finberg, Biochem. Pharmacol., 41, 155-162, 1991) and Amplex red (10 mM). Under these circumstances, via MAO-catalyzed oxidation of tyramine in a HRP-coupled reaction, Amplex red is converted to fluorescent resorufin. To measure MAO activity, the time-dependent increase in resorufin formation was determined at 2 min time intervals for 30 min at room temperature in a fluorescence microplate reader (BMG Labtechnologies GmbH, Germany), using excitation at 544 nm and emission at 595 nm. […] For calculation of results, the data were corrected for background readings (i.e., in the absence of the MAO substrate tyramine), and expressed as the increase in arbitrary fluorescence units/min. Protein content was determined according to the method of Bradford et al., (Anal. Biochem. 72, 248-254, 1976), using BSA as a standard. Statistical comparisons between groups were made using a one-way analysis of variance (ANOVA) followed by a Newman-Keuls post-hoc test. P values <0.01 were considered significant.
(§2) MAO activity and effects of the drugs thereon were determined as detailed above.
(§3) Data are expressed as percentages of respective controls, and are averages of two till five independent experiments performed in triplicate.

[2] = tested on: total monoamine oxidase (Σ MAO); conditions: for Σ MAO activity (% inhibition): solvent 0.03% DMSO only, neonatal rat striatal astroglial cell extracts
Procedure: as §1, §2, §3

[3] = target: T2, monoamine oxidase A (MAO-A) (Rattus norvegicus, UniProt P21396); conditions: upon selective and complete blockade of MAO-B activity with deprenyl
T2 sequence (P21396 1-526): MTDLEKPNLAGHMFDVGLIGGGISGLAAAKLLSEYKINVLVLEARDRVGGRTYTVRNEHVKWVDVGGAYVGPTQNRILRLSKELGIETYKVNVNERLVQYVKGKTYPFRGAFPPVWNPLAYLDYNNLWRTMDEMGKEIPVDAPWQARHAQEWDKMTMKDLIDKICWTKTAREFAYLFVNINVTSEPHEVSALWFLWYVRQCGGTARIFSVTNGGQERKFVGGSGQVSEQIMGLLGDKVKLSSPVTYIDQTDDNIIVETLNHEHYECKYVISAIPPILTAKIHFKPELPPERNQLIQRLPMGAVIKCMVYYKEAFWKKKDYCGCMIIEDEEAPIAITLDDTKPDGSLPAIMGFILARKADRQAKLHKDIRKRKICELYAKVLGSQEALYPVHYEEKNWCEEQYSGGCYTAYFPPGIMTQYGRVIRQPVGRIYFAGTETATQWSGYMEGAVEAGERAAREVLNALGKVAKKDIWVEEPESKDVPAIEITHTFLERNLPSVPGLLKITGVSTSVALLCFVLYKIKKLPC
Procedure: as §1, §2, §3

MAO-B = MAO-B inhibitory activity measured at CEREP (protocol of Salach); type: biochemical
Procedure: MAO-B inhibitory activity of the compounds A1-D6 were measured at CEREP (Paris, France), according to the protocol described by J. L. Salach, Arch. Biochem. Biophys., 192, 128,1979.
MAO-B inhibitory activity of the compounds A1-D6 AS measured at CEREP (Paris, France), according to the protocol described by J. L. Salach, Arch. Biochem. Biophys., 192, 128, 1979.

[4] = read-out: MAO-B activity (% inhibition)

SMILES: COc1ccc(-c2cc(=S)ss2)cc1 [ADT, 5-(p-methoxyphenyl)-3H-1,2-dithiole-3-thione]
- concentration-effect relationship for MAO-B compared to inhibition of total MAO activity ([1]; following selective and complete blockade of MAO-A activity by clorgyline): identical concentration-effect relationships
- inhibition at 0.03 µM [1, 4]: 0%
- inhibition at 0.1 µM [1, 4]: 15%
- inhibition at 0.3 µM [1, 4]: 40%
- inhibition at 1 µM [1, 4]: 73%
- inhibition at 3 µM [1, 4]: 89%
- inhibition at 10 µM [1, 4]: 96%
- inhibition at 30 µM [1, 4]: 100%
- Σ MAO activity (% inhibition) ([2]; 0.1 μM): 14%
- Σ MAO activity (% inhibition) ([2]; 0.3 μM): 35%
- Σ MAO activity (% inhibition) ([2]; 1 μM): 60%
- Σ MAO activity (% inhibition) ([2]; 3 μM): 70%
- Σ MAO activity (% inhibition) ([2]; 10 μM): 81%
- Σ MAO activity (% inhibition) ([2]; 30 μM): 85%
- maximal effect on total MAO activity (inhibition) ([2]; at a concentration of 30 μM): ~80%
- IC50 ([2]; read-out: apparent IC50, inhibition of total astroglial MAO activity, substrate tyramine, astroglial cell extracts): ~0.5 µM
- effect on MAO-A activity [3]: no statistically significant effect

- melting point: 121 °C
SMILES: CCCCCCOc1ccc(-c2cssc2=S)cc1 [Compound A1]
- MAO-B %-inhibition at 10^−5 M (MAO-B): 100%

SMILES: S=c1ssc(N2CCN(c3cccc4c3OCCO4)CC2)c1-c1ccccc1 [Compound B1]
- MAO-B %-inhibition at 10^−5 M (MAO-B): 65%

SMILES: Cc1ccc(-c2c(N3CCN(c4ccccc4)CC3)ssc2=S)cc1 [Compound B3]
- MAO-B %-inhibition at 10^−5 M (MAO-B): 54%

SMILES: CCN(CC)c1ccc(C=Cc2cc(=S)ss2)cc1 [Compound C1]
- MAO-B %-inhibition at 10^−5 M (MAO-B): 52%

SMILES: S=c1cc(C=Cc2ccc3ccccc3n2)ss1 [Compound C2]
- MAO-B %-inhibition at 10^−5 M (MAO-B): 56%

SMILES: S=c1ccss1 [Compound D3T, 3H-1,2-dithiole-3-thione]
- maximally effective concentration, blockade of MAO-B activity ([1]; in the presence of clorgyline): 300 µM
- inhibition at 1 µM [1, 4]: 2%
- inhibition at 3 µM [1, 4]: 6%
- inhibition at 10 µM [1, 4]: 24%
- inhibition at 30 µM [1, 4]: 59%
- inhibition at 100 µM [1, 4]: 82%
- inhibition at 300 µM [1, 4]: 92%
- inhibition at 1000 µM [1, 4]: 91%
- IC50 ([1]; read-out: apparent IC50, blockade of MAO-B activity): ~20 µM
